{
  "source": "patent US7183415B2",
  "about": "“Quinoline compound” (Takeda Pharmaceutical Company Limited, priority 2001, dated 2007)",
  "data": [
    {"units": {"melting point": "°C"}, "values": [
      {"smiles": "Cc1cc2cc(CN3CCCC3)cnc2cc1NC(=O)c1ccc(-c2ccccc2Cl)cc1.Cl", "melting point": 283},
      {"smiles": "Cc1c(NC(=O)c2ccc(-c3ccc4c(c3)OCO4)cc2)ccc2cc(CN3CCCC3)cnc12", "note": "(hydrate or solvate) [Example 105, 4-(1,3-benzodioxol-5-yl)-N-[8-methyl-3-(1-pyrrolidinylmethyl)-7-quinolinyl]benzamide]", "melting point": "171 to 172"},
      {"smiles": "Cc1c(NC(=O)c2ccc(-c3cc4ccccc4o3)cc2)ccc2cc(CN3CCCC3)cnc12", "note": "(hydrate or solvate) [Example 106, 4-(1-benzofuran-2-yl)-N-[8-methyl-3-(1-pyrrolidinylmethyl)-7-quinolinyl]benzamide]", "melting point": "217 to 218"},
      {"smiles": "Cc1c(NC(=O)c2ccc(-c3ccccc3Cl)cc2)ccc2cc(CN3CCCC3)cnc12", "note": "(hydrate or solvate) [Example 108, 2′-chloro-N-[8-methyl-3-(1-pyrrolidinylmethyl)-7-quinolinyl][1,1′-biphenyl]-4-carboxamide]", "melting point": "128 to 129"},
      {"smiles": "CSc1ccc(-c2ccc(C(=O)Nc3ccc4cc(CN5CCCC5)cnc4c3C)cc2)cc1", "note": "(hydrate or solvate) [Example 110, N-[8-methyl-3-(1-pyrrolidinylmethyl)-7-quinolinyl]-4′-(methylsulfanyl)[1,1′-biphenyl]-4-carboxamide]", "melting point": "206 to 208"},
      {"smiles": "Cc1c(NC(=O)c2ccc(-c3ccc4c(c3)OCCO4)cc2)ccc2cc(CN3CCCC3)cnc12", "note": "(hydrate or solvate) [Example 115, 4-(2,3-dihydro-1,4-benzodioxin-6-yl)-N-[8-methyl-3-(1-pyrrolidinylmethyl)-7-quinolinyl]benzamide]", "melting point": "187 to 188"},
      {"smiles": "CC(=O)c1ccc(-c2ccc(C(=O)Nc3ccc4cc(CN5CCCC5)cnc4c3C)cc2)s1", "note": "(hydrate or solvate) [Example 119, 4-(5-acetyl-2-thienyl)-N-[8-methyl-3-(1-pyrrolidinylmethyl)-7-quinolinyl]benzamide]", "melting point": "194 to 195"},
      {"smiles": "Cc1c(NC(=O)c2ccc(-c3cc4ccccc4s3)cc2)ccc2cc(CN3CCCC3)cnc12", "note": "(hydrate or solvate) [Example 120, 4-(1-benzothien-2-yl)-N-[8-methyl-3-(1-pyrrolidinylmethyl)-7-quinolinyl]benzamide]", "melting point": "217 to 218"},
      {"smiles": "Cc1c(NC(=O)c2ccc(OCc3ccc(F)cc3)cc2)ccc2cc(CN3CCCC3)cnc12", "note": "(hydrate or solvate) [Example 123, 4-[(4-fluorobenzyl)oxy]-N-[8-methyl-3-(1-pyrrolidinylmethyl)-7-quinolinyl]benzamide]", "melting point": "177 to 178"},
      {"smiles": "Cc1c(NC(=O)c2ccc(-c3ccc(Cl)cc3Cl)cc2F)ccc2cc(CN3CCCC3)cnc12", "note": "(hydrate or solvate) [Example 137, 2′,4′-dichloro-3-fluoro-N-[8-methyl-3-(1-pyrrolidinylmethyl)-7-quinolinyl][1,1′-biphenyl]-4-carboxamide]", "melting point": "162 to 163"},
      {"smiles": "Cc1c(NC(=O)c2ccc(-c3ccc(C(F)(F)F)cc3)cc2F)ccc2cc(CN3CCCC3)cnc12", "note": "(hydrate or solvate) [Example 138, 3-fluoro-N-[8-methyl-3-(1-pyrrolidinylmethyl)-7-quinolinyl]-4′-(trifluoromethyl)[1,1′-biphenyl]-4-carboxamide]", "melting point": "202 to 203"},
      {"smiles": "Cc1c(NC(=O)c2ccc(-c3ccc4c(c3)OCO4)cc2F)ccc2cc(CN3CCCC3)cnc12", "note": "(hydrate or solvate) [Example 141, 4-(1,3-benzodioxol-5-yl)-2-fluoro-N-[8-methyl-3-(1-pyrrolidinylmethyl)-7-quinolinyl]benzamide]", "melting point": "181 to 182"},
      {"smiles": "Cc1c(NC(=O)c2ccc(-c3ccc(Cl)s3)cc2F)ccc2cc(CN3CCCC3)cnc12", "note": "(hydrate or solvate) [Example 143, 4-(5-chloro-2-thienyl)-2-fluoro-N-[8-methyl-3-(1-pyrrolidinylmethyl)-7-quinolinyl]benzamide]", "melting point": "160 to 162"},
      {"smiles": "Cc1c(NC(=O)c2ccc(-c3ccccc3)cc2F)ccc2cc(CN3CCCCC3)cnc12", "note": "(hydrate or solvate) [Example 169, 3-fluoro-N-[8-methyl-3-(1-piperidinylmethyl)-7-quinolinyl][1,1′-biphenyl]-4-carboxamide]", "melting point": "187 to 188"},
      {"smiles": "Cc1c(NC(=O)c2ccc(-c3ccc(Cl)s3)cc2F)ccc2cc(CN3CCCCC3)cnc12", "note": "(hydrate or solvate) [Example 172, 4-(5-chloro-2-thienyl)-2-fluoro-N-[8-methyl-3-(1-piperidinylmethyl)-7-quinolinyl]benzamide]", "melting point": "205 to 206"},
      {"smiles": "Cc1c(NC(=O)c2ccc(-c3ccccc3)c(F)c2)ccc2cc(CN3CCCCC3)cnc12", "note": "(hydrate or solvate) [Example 175, 2-fluoro-N-[8-methyl-3-(1-piperidinylmethyl)-7-quinolinyl][1,1′-biphenyl]-4-carboxamide]", "melting point": "138 to 139"},
      {"smiles": "Cc1c(NC(=O)c2ccc(-c3ccc(F)cc3)c(F)c2)ccc2cc(CN3CCCCC3)cnc12", "note": "(hydrate or solvate) [Example 176, 2,4′-difluoro-N-[8-methyl-3-(1-piperidinylmethyl)-7-quinolinyl][1,1′-biphenyl]-4-carboxamide]", "melting point": "161 to 162"},
      {"smiles": "Cc1c(NC(=O)c2ccc(-c3ccc(Cl)s3)cc2)ccc2cc(CN3CCCCCC3)cnc12", "note": "(hydrate or solvate) [Example 181, N-[3-(1-azepanylmethyl)-8-methyl-7-quinolinyl]-4-(5-chloro-2-thienyl)benzamide]", "melting point": "186 to 187"},
      {"smiles": "Cc1c(NC(=O)c2ccc(-c3ccccc3)cc2F)ccc2cc(CN3CCCCCC3)cnc12", "note": "(hydrate or solvate) [Example 183, N-[3-(1-azepanylmethyl)-8-methyl-7-quinolinyl]-3-fluoro[1,1′-biphenyl]-4-carboxamide]", "melting point": "151 to 153"},
      {"smiles": "Cc1c(NC(=O)c2ccc(-c3ccc(Cl)s3)cc2F)ccc2cc(CN3CCCCCC3)cnc12", "note": "(hydrate or solvate) [Example 186, N-[3-(1-azepanylmethyl)-8-methyl-7-quinolinyl]-4-(5-chloro-2-thienyl)-2-fluorobenzamide]", "melting point": "166 to 167"},
      {"smiles": "Cc1c(NC(=O)c2ccc(-c3ccccc3)c(F)c2)ccc2cc(CN3CCCCCC3)cnc12", "note": "(hydrate or solvate) [Example 188, N-[3-(1-azepanylmethyl)-8-methyl-7-quinolinyl]-2-fluoro[1,1′-biphenyl]-4-carboxamide]", "melting point": "129 to 130"},
      {"smiles": "Cc1c(NC(=O)c2ccc(-c3ccc(F)cc3)c(F)c2)ccc2cc(CN3CCCCCC3)cnc12", "note": "(hydrate or solvate) [Example 189, N-[3-(1-azepanylmethyl)-8-methyl-7-quinolinyl]-2,4′-difluoro[1,1′-biphenyl]-4-carboxamide]", "melting point": "162 to 163"},
      {"smiles": "COc1ccc(-c2ccc(C(=O)Nc3ccc4cc(CN5CCCCCC5)cnc4c3C)cc2F)cc1", "note": "(hydrate or solvate) [Example 190, N-[3-(1-azepanylmethyl)-8-methyl-7-quinolinyl]-2-fluoro-4′-methoxy[1,1′-biphenyl]-4-carboxamide]", "melting point": "160 to 161"},
      {"smiles": "CN(C)Cc1cnc2cc(NC(=O)c3ccc(-c4ccc(Cl)cc4)cc3)ccc2c1", "note": "[Example 1, 4′-chloro-N-[3-[(dimethylamino)methyl]-7-quinolinyl][1,1′-biphenyl]-4-carboxamide]", "melting point": "236 to 238"},
      {"smiles": "O=C(Nc1ccc2cc(CN3CCCC3)cnc2c1)c1ccc(-c2ccccc2)cc1", "note": "[Example 2, N-[3-(1-pyrrolidinylmethyl)-7-quinolinyl][1,1′-biphenyl]-4-carboxamide]", "melting point": "192 to 194"},
      {"smiles": "COc1ccc(-c2ccc(C(=O)Nc3ccc4cc(CN5CCCC5)cnc4c3)cc2)cc1", "note": "[Example 3, 4′-methoxy-N-[3-(1-pyrrolidinylmethyl)-7-quinolinyl][1,1′-biphenyl]-4-carboxamide]", "melting point": "202 to 204"},
      {"smiles": "O=C(Nc1ccc2cc(CN3CCCC3)cnc2c1)c1ccc(-c2ccc(F)cc2)cc1", "note": "[Example 4, 4′-fluoro-N-[3-(1-pyrrolidinylmethyl)-7-quinolinyl][1,1′-biphenyl]-4-carboxamide]", "melting point": "210 to 212"},
      {"smiles": "Cc1ccc(-c2ccc(C(=O)Nc3ccc4cc(CN5CCCC5)cnc4c3)cc2)cc1", "note": "[Example 5, 4′-methyl-N-[3-(1-pyrrolidinylmethyl)-7-quinolinyl][1,1′-biphenyl]-4-carboxamide]", "melting point": "206 to 208"},
      {"smiles": "O=C(Nc1ccc2cc(CN3CCCC3)cnc2c1)c1ccc(-c2ccc(Cl)cc2)cc1", "note": "[Example 6, 4′-chloro-N-[3-(1-pyrrolidinylmethyl)-7-quinolinyl][1,1′-biphenyl]-4-carboxamide]", "melting point": "217 to 220"},
      {"smiles": "O=C(Nc1ccc2cc(CN3CCCC3)cnc2c1)c1ccc(-c2ccccc2)nc1", "note": "[Example 7, 6-phenyl-N-[3-(1-pyrrolidinylmethyl)-7-quinolinyl]nicotinamide]", "melting point": "208 to 210"},
      {"smiles": "O=C(Nc1ccc2cc(CN3CCCC3)cnc2c1)c1ccc(-c2ccc(F)cc2)nc1", "note": "[Example 9, 6-(4-fluorophenyl)-N-[3-(1-pyrrolidinylmethyl)-7-quinolinyl]nicotinamide]", "melting point": "218 to 220"},
      {"smiles": "Cc1ccc(-c2ccc(C(=O)Nc3ccc4cc(CN5CCCC5)cnc4c3)cn2)cc1", "note": "[Example 10, 6-(4-methylphenyl)-N-[3-(1-pyrrolidinylmethyl)-7-quinolinyl]nicotinamide]", "melting point": "226 to 228"},
      {"smiles": "O=C(Nc1ccc2cc(CN3CCCC3)cnc2c1)c1ccc(-c2ccc(Cl)cc2)nc1", "note": "[Example 11, 6-(4-chlorophenyl)-N-[3-(1-pyrrolidinylmethyl)-7-quinolinyl]nicotinamide]", "melting point": "223 to 225"},
      {"smiles": "O=C(Nc1ccc2cc(CN3CCCC3)cnc2c1)N1CCC(c2ccccc2)CC1", "note": "[Example 12, 4-phenyl-N-[3-(1-pyrrolidinylmethyl)-7-quinolinyl]-1-piperidine carboxamide]", "melting point": "222 to 224"},
      {"smiles": "COc1ccc(C2CCN(C(=O)Nc3ccc4cc(CN5CCCC5)cnc4c3)CC2)cc1", "note": "[Example 13, 4-(4-methoxyphenyl)-N-[3-(1-pyrrolidinylmethyl)-7-quinolinyl]-1-piperidine carboxamide]", "melting point": "241 to 243"},
      {"smiles": "O=C(Nc1ccc2cc(CN3CCCC3)cnc2c1)N1CCC(c2ccc(F)cc2)CC1", "note": "[Example 14, 4-(4-fluorophenyl)-N-[3-(1-pyrrolidinylmethyl)-7-quinolinyl]-1-piperidine carboxamide]", "melting point": "239 to 241"}
    ]}
  ]
}
